# From patent US9085559B2, “Triazine-aryl-bis-indoles and process for preparation thereof” (COUNCIL OF SCIENTIFIC & INDUSTRIAL RESEARCH, priority 2010, dated 2015)
# Values joined by “and” are separate entries in the source; they are usually repeats but may differ in a detail not shown here. Equal values may be shown once. Read-outs that look alike come from different tables or passages of the source.
# Legend:
# [1] = system: Vascular Cell Adhesion Molecule type 1 (VCAM-1); test: Cell-ELISA, TNF-α induced VCAM-1 expression on HUVECs; format: cell-based; settings: Homo sapiens, HUVEC; HUVECs pretreated 2 hours, TNF-α 16 hours
# Protocol: FIG. 4. Inhibition of TNF-α induced expression Intercellular Adhesion Molecule type 1 (ICAM-1) and Vascular Cell Adhesion Molecule type 1 (VCAM-1) on HUVECs by IICT-TA67. To determine the effect of IICT-TA67 on TNF-α induced cell adhesion molecules such as ICAM-1 and VCAM-1, HUVECs were pretreated with various concentrations of IICT-TA67 for 2 hours followed by induction with TNF-α for 16 hours. The cell surface expression of cell adhesion molecules was measured by ELISA.
# Cell-ELISA was used for measuring the expression of ICAM-1 on surface of endothelial cells. Endothelial cells were incubated with or without IICT-TA67 at desired concentrations for the required period, followed by treatment with TNF-α (10 ng/ml) for 16 h for ICAM-1 and VCAM-1 expression. The cells were fixed with 1.0% glutaraldehyde. Non-specific binding of antibody was blocked by using skimmed milk (3.0% in PBS). Cells were incubated overnight at 4° C. with anti-ICAM-1 mAb anti-VCAM-1 antibody, diluted in blocking buffer, the cells were further washed with PBS and incubated with peroxidase-conjugated goat anti-mouse secondary Abs. […] Reaction was stopped by the addition of 2 N sulfuric acid and absorbance at 490 nm was measured using microplate reader (Spectramax 190, Molecular Devices, USA).
# [2] = Pharmacokinetic study, oral and i.v. route; format: in vivo, swiss mice; settings: mice; for half-life: read-out: T ½ (converted)
# Protocol: FIG. 6. Pharmacokinetics of IICT-TA67 through oral route. FIG. 7. Pharmacokinetics of IICT-TA67 through intravenous (i.v) route in mice. IICT-TA67 (20 mg/kg) was administered orally (or 10 mg/kg by i.v. route) as a fine suspension in 1% Gum acacia. Blood samples were drawn from retro-orbital plexus at designated times in pre-labeled heparinised tubes and centrifuged (3500 rpm×10 minutes) to obtain the plasma. Blood samples were collected at 0, 5, 15 and 30 min, and 1, 2, 4, 6, 8, 16 and 24 hrs post-administration after oral/iv route. HPLC determinations were done on Shimadzu chromatograph (Model: LC-10 Atvp equipped with a diode array detector). The Molecule ICT-TA67 was determined at 276 nm using RP-18 column (5 μm×25 cm). Mobile phase consisted of acetonitrile: water (55:45) with a flow rate of 1.0 ml/min.
# Animals. Healthy swiss mice of both the sexes (25-30) were used. The animals were kept (3/cage) under controlled conditions (temp 26±2° C.; relative humidity 50±5%; 12 h light/dark cycle) and maintained on pelleted rodent diet (Ashirwad Industries Ltd. Chandigarh, India). Water was provided ad libitum. Institutional Animal Ethics committee approved the animal experiments. Animals were fasted for 16 hours before use.
# Step 1: Dosing: IICT-TA67 (20 mg/kg) was administered orally (or 10 mg/kg by i.v.route) as a fine suspension in 1% Gum acacia. Blood samples were drawn from retro-orbital plexus at designated times in pre-labeled heparinised tubes and centrifuged (3500 rpm×10 minutes) to obtain the plasma. Blood samples were collected at 0, 5, 15 and 30 min, and 1, 2, 4, 6, 8, 16 and 24 hrs post-administration after oral/iv route.
# Step 2: HPLC determinations: Aliquots of plasma were mixed with acetonitrile (1:2), vortexed for two minutes (2500 rpm) and centrifuge at 5000 rpm for 10 min. The organic layer was collected and evaporated to dryness using solvent evaporator (Model: SPD 111V, Thermo Electron Corporation, MA). The dried samples were reconstituted in mobile phase for HPLC analysis. In a similar manner samples were also prepared from aliquots of plasma collected from untreated animals which were spiked with molecule 67 (0.25 μg-10 μg/ml). […] Reproducibility of the method was defined by both intra-, and inter-day variance. The retention time of Mol. 67 was 10.688 min, at which no other interfering peak was observed. The lower limit of detection (LOD) was 11 ng/ml; limit of quantitation (LOQ) was 32 ng/ml; recovery was 90±2%.
# HPLC determinations were done on Shimadzu chromatograph (Model: LC-10 Atvp equipped with a diode array detector). Molecule 67 was determined at 276 nm using RP-18 column (5 μm×25 cm). Mobile phase consisted of acetonitrile: water (55:45) with a flow rate of 1.0 ml/min.
# Step 3: Calculating Bioavailability indices: A concentration-time curve for Molecule 67 was established and pharmacokinetic parameters AUC, Cmax, and tmax were determined by a non-compartmental analysis using TOPFIT software package. Absolute bioavailability was determined using the following formula: AUCoral×doseiv/AUCiv×Doseoral.
# [3] = both sexes, Swiss, mouse, plasma, iv, 10 mg/kg
# [4] = both sexes, Swiss, mouse, plasma, oral, 20 mg/kg
smiles,measurement,setting,value
"COc1ccc(C(c2[nH]c3ccccc3c2CC(=O)O)c2[nH]c3ccccc3c2CC(=O)O)cc1Oc1nc(NC2CC2)nc(NC2CC2)n1 [Compound 7, 2,2′-[2,2′-3-(4,6-bis-cyclopropylamino)-1,3,5-triazin-2-yl-oxy-4-methoxy-phenyl]-methylene-bis-(1H-indole-3,3-diyl)-diacetic acid]",IC50,[1],16.6 µg/mL
same,Tmax,[2]; [3],0.167 h
same,half-life,"[2]; both sexes, Swiss, mouse, plasma, iv, 10 mg/kg, i.v., 10 mg/kg",0.93 h
same,AUC,[2]; [3],358 ng·h/mL
same,Cmax,[2]; [3],332 ng/mL
same,clearance,[2]; [3],466 mL/min and 466 mL/min/kg
same,AUC(0-t),"[2]; both sexes, Swiss, mouse, plasma, iv, 10 mg/kg (Table 2)",358 ng·h/mL
same,Vd,"[2]; both sexes, Swiss, mouse, plasma, iv, i.v., 10 mg/kg, read-out: Vd",37.5 L and 37.5 L/kg
same,bioavailability,"[2]; both sexes, Swiss, mouse, plasma, oral, AUCoral×doseiv/AUCiv×Doseoral, read-out: Absolute bioavailability (F)",70.3%
same,Tmax,"[2]; both sexes, Swiss, mouse, plasma, po, 20 mg/kg",3 h
same,Tmax,"[2]; both sexes, Swiss, mouse, plasma, po, 20 mg/kg, 20 mg/kg (Table 2)",2 h
same,half-life,"[2]; both sexes, Swiss, mouse, plasma, po, 20 mg/kg, oral, 20 mg/kg",4.26 h
same,AUC,[2]; [4],503 ng·h/mL
same,Cmax,[2]; [4],107 ng/mL
same,AUC(0-t),"[2]; both sexes, Swiss, mouse, plasma, oral, 20 mg/kg (Table 2)",503 ng·h/mL
same,T ½,"[2]; i.v., 10 mg/kg, listed as IICT-TA67, 10 mg/kg",1.5 h
same,Vd,"[2]; oral, 20 mg/kg, listed as TA-67, 20 mg/kg",474 L
